Source: ChEMBL document CHEMBL4814003, “Novel dual-mode antitumor chlorin-based derivatives as potent photosensitizers and histone deacetylase inhibitors for photodynamic therapy and chemotherapy” (Eur J Med Chem, 2021)

Key:
[1] = tested on: A549; test: Phototoxicity in human A549 cells assessed as reduction in cell viability irradiated 10 j/cm2 for 24 hrs followed by incubated for 24 hrs by CCK8 assay; type: functional, cell-based; conditions: A549, light or radiation study
[2] = target: Histone deacetylase 3 (Homo sapiens, UniProt O15379); test: Inhibition of human recombinant HDAC3 using Ac-Leu-Gly-Lys(Ac)-AMC as substrate by measuring fluorescence intensity incubated for 30 mins by microplate reader assay
[3] = target: T1, Histone deacetylase 8 (Homo sapiens, UniProt Q9BY41); test: Inhibition of human recombinant HDAC8 using Ac-Leu-Gly-Lys(Ac)-AMC as substrate by measuring fluorescence intensity incubated for 30 mins by microplate reader assay
T1 sequence (Q9BY41 whole entry): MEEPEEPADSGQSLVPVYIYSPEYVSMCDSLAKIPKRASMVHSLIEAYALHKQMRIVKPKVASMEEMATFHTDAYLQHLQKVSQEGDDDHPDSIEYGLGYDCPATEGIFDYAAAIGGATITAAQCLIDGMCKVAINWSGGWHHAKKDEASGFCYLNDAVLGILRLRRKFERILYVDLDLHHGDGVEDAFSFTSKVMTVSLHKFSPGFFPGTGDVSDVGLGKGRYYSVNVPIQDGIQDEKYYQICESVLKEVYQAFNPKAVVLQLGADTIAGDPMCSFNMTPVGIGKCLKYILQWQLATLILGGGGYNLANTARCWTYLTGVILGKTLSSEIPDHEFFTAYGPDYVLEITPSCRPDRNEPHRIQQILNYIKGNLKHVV

[4] = target: T2, Polyamine deacetylase HDAC10 (Homo sapiens, UniProt Q969S8); test: Inhibition of human recombinant HDAC10 using Ac-Leu-Gly-Lys(Ac)-AMC as substrate by measuring fluorescence intensity incubated for 30 mins by microplate reader assay
T2 sequence (Q969S8 whole entry): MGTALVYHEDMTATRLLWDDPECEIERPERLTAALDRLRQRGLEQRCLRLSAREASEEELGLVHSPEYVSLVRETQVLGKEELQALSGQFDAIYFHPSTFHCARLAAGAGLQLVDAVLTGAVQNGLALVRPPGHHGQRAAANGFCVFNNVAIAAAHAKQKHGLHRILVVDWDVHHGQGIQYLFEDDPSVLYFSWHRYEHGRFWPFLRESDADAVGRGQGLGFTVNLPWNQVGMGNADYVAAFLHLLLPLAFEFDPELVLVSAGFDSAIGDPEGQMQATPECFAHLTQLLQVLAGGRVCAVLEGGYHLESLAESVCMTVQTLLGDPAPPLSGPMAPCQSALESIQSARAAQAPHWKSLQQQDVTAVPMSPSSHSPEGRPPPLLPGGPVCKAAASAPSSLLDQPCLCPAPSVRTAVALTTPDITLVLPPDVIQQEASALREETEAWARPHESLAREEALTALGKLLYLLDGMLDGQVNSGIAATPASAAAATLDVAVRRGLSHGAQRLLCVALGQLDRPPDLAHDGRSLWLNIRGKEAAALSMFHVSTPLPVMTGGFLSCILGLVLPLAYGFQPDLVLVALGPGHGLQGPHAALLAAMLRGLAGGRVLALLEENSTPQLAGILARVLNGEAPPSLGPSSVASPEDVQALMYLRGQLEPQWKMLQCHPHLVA

[5] = tested on: A549; test: Induction of apoptosis in human A549 cells assessed as apoptotic cells at 0.01 uM in presence of light irradiation incubated for 48 hrs by annexin V-FITC staining based flow cytometry; type: functional
[6] = target: Histone deacetylase 1 (Homo sapiens, UniProt Q13547); test: Inhibition of human recombinant HDAC1 in human A 549 cells assessed as effect on acetyl-H4 expression measured after 24 hrs by western blot analysis; type: cell-based; conditions: A549, dose microM <=2, time 24.0 hrs
Sequence of Histone deacetylase 1 (Q13547 whole entry): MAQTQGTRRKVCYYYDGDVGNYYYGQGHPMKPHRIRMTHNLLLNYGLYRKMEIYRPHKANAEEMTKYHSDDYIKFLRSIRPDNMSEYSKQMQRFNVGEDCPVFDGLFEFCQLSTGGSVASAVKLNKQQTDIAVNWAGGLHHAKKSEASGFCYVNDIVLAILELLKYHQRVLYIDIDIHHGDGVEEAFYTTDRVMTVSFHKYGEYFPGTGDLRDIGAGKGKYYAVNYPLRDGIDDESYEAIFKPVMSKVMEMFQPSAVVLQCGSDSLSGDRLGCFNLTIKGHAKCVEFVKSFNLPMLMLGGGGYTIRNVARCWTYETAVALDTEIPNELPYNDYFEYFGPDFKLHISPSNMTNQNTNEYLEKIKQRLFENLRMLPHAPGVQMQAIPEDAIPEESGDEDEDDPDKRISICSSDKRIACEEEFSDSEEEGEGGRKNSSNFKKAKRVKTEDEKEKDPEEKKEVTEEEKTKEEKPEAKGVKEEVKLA

Sequence of Histone deacetylase 3 (O15379 whole entry): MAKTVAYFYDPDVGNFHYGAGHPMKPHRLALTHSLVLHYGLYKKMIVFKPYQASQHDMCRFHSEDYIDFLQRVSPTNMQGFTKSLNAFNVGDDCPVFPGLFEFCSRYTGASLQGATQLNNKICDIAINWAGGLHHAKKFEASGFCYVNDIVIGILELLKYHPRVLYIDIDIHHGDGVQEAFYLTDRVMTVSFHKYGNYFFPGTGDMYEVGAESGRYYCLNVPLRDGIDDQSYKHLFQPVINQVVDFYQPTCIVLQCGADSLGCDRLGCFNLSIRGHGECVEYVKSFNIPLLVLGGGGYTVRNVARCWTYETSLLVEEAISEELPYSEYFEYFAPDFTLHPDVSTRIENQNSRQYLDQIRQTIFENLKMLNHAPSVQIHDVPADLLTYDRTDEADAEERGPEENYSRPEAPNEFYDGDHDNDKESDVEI

SMILES: C=Cc1c(C)c2cc3nc(c(C(=O)OC)c4[nH]c(cc5nc(cc1[nH]2)C(C)=C5CC)c(C)c4C(=O)OC)[C@@H](CCC(=O)Nc1ccc(C(=O)Nc2ccccc2N)cc1)[C@@H]3C
- IC50 [1]: 60 nM
- IC50 [2]: 72.1 µM
- IC50 [3]: > 100 µM
- IC50 [4]: > 100 µM
- Activity [5]: 27.32%
- inhibition [6]: Dose-Dependent Effect
